In the NIST ThermoML archive (doi:10.1021/acs.jced.9b00780):
Numbers after ± are expanded uncertainties.

What was measured:
[1] = wn = mass fraction of the nth substance listed; settings: 298.15 K, 100 kPa, Liquid, Vibrating tube method
[2] = refractive index (Na D-line) (dimensionless); wn = mass fraction of the nth substance listed; settings: 298.15 K, 100 kPa, Liquid, Standard Abbe refractometry

| mass density ([1]; w1 = 0.2259) [kg/m3] | refractive index ([2]; w1 = 0.2259) | Compound | mass density ([1]; w1 = 0.0308) [kg/m3] | refractive index ([2]; w1 = 0.0308) |
| --- | --- | --- | --- | --- |
| 1267.8 ± 6.2 | 1.3872 ± 0.0033 | O=B[O-].[Na+] [sodium metaborate] + O |  |  |
|  |  | O=BOB([O-])OB([O-])OB=O.[Na+].[Na+] [sodium tetraborate] + O | 1025.65 ± 0.63 | 1.339 ± 0.003 |
